The nature of assay [1]: Inhibition of recombinant his tagged IMP1 (unknown origin) expressed in Escherichia coli (DE3) cells using FC5 as substrate by microplate reader assay.
Assay [2] is described as follows: Inhibition of recombinant NDM1 (unknown origin) expressed in Escherichia coli (DE3) cells using FC5 as substrate by microplate reader assay.
Assay [3] is described as follows: Inhibition of recombinant VIM-1 (unknown origin) expressed in Escherichia coli (DE3) cells using FC5 as substrate by microplate reader assay.
Assay [4] is described as follows: Inhibition of recombinant his tagged VIM-2 (unknown origin) expressed in Escherichia coli (DE3) cells using FC5 as substrate by microplate reader assay.
A short description of assay [5]: Inhibition of recombinant VIM-5 (unknown origin) expressed in Escherichia coli (DE3) cells using FC5 as substrate by microplate reader assay.

For orientation: IC50 means the concentration at which inhibition is half-maximal.

Take `NCCN[C@H]1CC[C@H](CC(=O)N[C@H]2Cc3cccc(C(=O)O)c3OB2O)CC1`: the concentration for half-maximal inhibition (IC50) in assay [1] was determined as 13.2 µM; in assay [2], 0.18 µM; in assay [3] it was 0.041 µM; in assay [4] it was 0.004 µM.
For `O=C(O)c1cccc(-n2cc(-c3ccccc3)nn2)c1`, the half-inhibitory concentration (IC50) in assay [1], in assay [2], in assay [3], in assay [4] and in assay [5] was more than 100 µM each time.
Consider `Nc1c(C(=O)O)cccc1-n1cc(-c2ccccc2)nn1`, for which the concentration for half-maximal inhibition (IC50) in assay [1], in assay [2], in assay [3], in assay [4] and in assay [5] was more than 100 µM throughout.
Regarding `NCc1cn(-c2ccccc2CP(=O)(O)O)nn1`, the half-inhibitory concentration (IC50) in assay [1], in assay [2], in assay [3], in assay [4] and in assay [5] was more than 100 µM throughout.
Regarding `O=C(O)c1ccccc1-c1cn(-c2cccc(C(=O)O)c2C(=O)O)nn1`, the IC50 in assay [1] was 13.9 µM; in assay [2], more than 100 µM; in assay [3] it was 19.5 µM; in assay [4], more than 100 µM; in assay [5], more than 100 µM.
In the case of `OB(O)c1cccc(-c2cn(Cc3ccccc3)nn2)c1`, the IC50 is more than 100 µM in assay [1]; 36.3 µM in assay [2]; more than 100 µM in assay [3]; 64.2 µM in assay [4]; 14.6 µM in assay [5].
With `Nc1ccccc1-c1cn(-c2cccc(C(=O)O)c2C(=O)O)nn1`, the IC50 was 6.43 µM in assay [1]; more than 100 µM in assay [2]; more than 100 µM in assay [3]; 37.6 µM in assay [4]; 61.7 µM in assay [5].
`Nc1cccc(-c2cn(-c3cccc(C(=O)O)c3C(=O)O)nn2)c1`: the concentration for half-maximal inhibition (IC50) in assay [1] is 1.17 µM; in assay [2], more than 100 µM; in assay [3] it was 14.5 µM; in assay [4] it was 11.7 µM; in assay [5], more than 100 µM.
Take `CCCCc1cn(-c2cccc(C(=O)O)c2C(=O)O)nn1`: the IC50 was 8.94 µM in assay [1]; more than 100 µM in assay [2]; more than 100 µM in assay [3]; 77.2 µM in assay [4]; more than 100 µM in assay [5].
As to `O=P(O)(O)Cc1ccccc1-n1cc(-c2cccc(Cl)c2)nn1`, the IC50 is 80.4 µM in assay [1]; more than 100 µM in assay [2]; 6.29 µM in assay [3]; 0.88 µM in assay [4]; 1.49 µM in assay [5].
The matching figures for `OB(O)c1cccc(-c2cn(-c3ccccc3)nn2)c1`: more than 100 µM, more than 100 µM, more than 100 µM, more than 100 µM and more than 100 µM.
With `NCCc1ccc(-c2cn(-c3cccc(C(=O)O)c3C(=O)O)nn2)cc1`, the IC50 was 1.8 µM in assay [1]; more than 100 µM in assay [2]; more than 100 µM in assay [3]; 67.5 µM in assay [4]; more than 100 µM in assay [5].
Regarding `O=C(O)c1cccc(-n2cc(-c3ccccc3)nn2)c1[N+](=O)[O-]`, the 50% inhibitory concentration (IC50) in assay [1], in assay [2], in assay [3], in assay [4] and in assay [5] was more than 100 µM throughout.
Regarding `O=P(O)(O)Cc1ccc(-n2cc(-c3ccccc3)nn2)cc1`, the IC50 in assay [1] was more than 100 µM; in assay [2] it was more than 100 µM; in assay [3], 16 µM; in assay [4], 1.63 µM; in assay [5], 1.5 µM.
On to `O=P(O)(O)Cc1ccccc1-n1cc(-c2ccccc2)nn1`, for which the IC50 in assay [1] was more than 100 µM; in assay [2] it was more than 100 µM; in assay [3], 10 µM; in assay [4], 1.48 µM; in assay [5], 1.63 µM.
On to `CC(C)(C)OC(=O)NCCn1cc(-c2cccc(B(O)O)c2)nn1`, for which the IC50 in assay [1] is more than 100 µM; in assay [2], more than 100 µM; in assay [3] it was more than 100 µM; in assay [4] it was 52.4 µM; in assay [5], more than 100 µM.
Turning to `O=C(O)c1cccc(-n2cc(-c3ccccc3)nn2)c1C(=O)O`, the IC50 in assay [1] was 8.23 µM; in assay [2] it was more than 100 µM; in assay [3] it was more than 100 µM; in assay [4] it was 13.3 µM; in assay [5], more than 100 µM.
Take `Nc1ccc(-c2cn(-c3cccc(C(=O)O)c3C(=O)O)nn2)cc1`: the IC50 in assay [1] was 5.07 µM; in assay [2] it was more than 100 µM; in assay [3] it was more than 100 µM; in assay [4], 10.3 µM; in assay [5] it was more than 100 µM.
On to `O=C(CCn1cc(-c2cccc(B(O)O)c2)nn1)Nc1ccccc1`, for which the IC50 is more than 100 µM in assay [1]; more than 100 µM in assay [2]; more than 100 µM in assay [3]; 34.3 µM in assay [4]; 6.36 µM in assay [5].
Consider `NCc1cn(-c2cccc(C(=O)O)c2C(=O)O)nn1`, for which the half-maximal inhibitory concentration (IC50) in assay [1] is 81.5 µM; in assay [2] it was more than 100 µM; in assay [3], more than 100 µM; in assay [4], more than 100 µM; in assay [5] it was more than 100 µM.
Take `OB(O)c1cccc(-c2cn(-c3cccc(Cl)c3)nn2)c1`: the IC50 in assay [1] is more than 100 µM; in assay [2], 29.1 µM; in assay [3], more than 100 µM; in assay [4] it was 24.2 µM; in assay [5], 14.7 µM.
For the compound `O=P(O)(O)Cc1cccc(-n2cc(-c3ccccc3)nn2)c1`, the IC50 is 5.98 µM in assay [1]; 27.8 µM in assay [2]; 3.65 µM in assay [3]; 0.65 µM in assay [4]; 0.05 µM in assay [5].
For `O=C(CCn1cc(-c2cccc(B(O)O)c2)nn1)Nc1cccc(Cl)c1`, in that order: more than 100 µM, 68.2 µM, more than 100 µM, 30.5 µM and 48.7 µM.
The matching figures for `NCc1cccc(-c2cn(-c3ccccc3CP(=O)(O)O)nn2)c1`: more than 100 µM, more than 100 µM, 21.7 µM, 4.92 µM and 1.4 µM.
`CCCCc1cn(-c2ccccc2CP(=O)(O)O)nn1`: the IC50 in assay [1] was more than 100 µM; in assay [2], more than 100 µM; in assay [3], 13.8 µM; in assay [4] it was 5.34 µM; in assay [5], 32.2 µM.
With `Nc1cccc(-c2cn(-c3ccccc3CP(=O)(O)O)nn2)c1`, the IC50 in assay [1] is more than 100 µM; in assay [2], 94.9 µM; in assay [3], 27.2 µM; in assay [4], 1.11 µM; in assay [5] it was 0.38 µM.
For `O=C(O)c1cccc(-n2cc(CNc3ccccc3)nn2)c1C(=O)O`, in that order: 3.53 µM, more than 100 µM, 37.8 µM, 53.2 µM and 72 µM.
For `O=C(O)c1cccc(-n2cc(-c3ccccc3)nn2)c1O`, the half-inhibitory concentration (IC50) in assay [1] was more than 100 µM; in assay [2], more than 100 µM; in assay [3], 61.9 µM; in assay [4], more than 100 µM; in assay [5], 59.9 µM.
In the case of `Nc1cccc(-n2cc(-c3cccc(B(O)O)c3)nn2)c1`, the IC50 in assay [1] is more than 100 µM; in assay [2] it was 50.4 µM; in assay [3], more than 100 µM; in assay [4], 18.4 µM; in assay [5], more than 100 µM.
Regarding `O=C(O)c1cccc(-n2cc(CCO)nn2)c1C(=O)O`, the half-inhibitory concentration (IC50) in assay [1] is 40.7 µM; in assay [2], more than 100 µM; in assay [3], more than 100 µM; in assay [4], more than 100 µM; in assay [5], more than 100 µM.
With `O=C(O)c1ccc(-n2cc(-c3ccccc3)nn2)cc1C(=O)O`, the IC50 in assay [1] is 46.2 µM; in assay [2], more than 100 µM; in assay [3] it was more than 100 µM; in assay [4], 94.6 µM; in assay [5], 60.4 µM.
In the case of `O=C(O)c1cccc(-n2cc(Cc3ccccc3)nn2)c1C(=O)O`, the IC50 in assay [1] is 9.02 µM; in assay [2], more than 100 µM; in assay [3] it was 71 µM; in assay [4], more than 100 µM; in assay [5], 87.1 µM.
`OCCn1cc(-c2cccc(B(O)O)c2)nn1`: the IC50 in assay [1], in assay [2], in assay [3], in assay [4] and in assay [5] was more than 100 µM in each case.
With `NCc1cccc(-c2cn(-c3cccc(C(=O)O)c3C(=O)O)nn2)c1`, the IC50 is 19.7 µM in assay [1]; more than 100 µM in assay [2]; more than 100 µM in assay [3]; more than 100 µM in assay [4]; more than 100 µM in assay [5].
For `Cc1cccc(-c2cn(-c3ccccc3CP(=O)(O)O)nn2)c1`, the IC50 in assay [1] was more than 100 µM; in assay [2], more than 100 µM; in assay [3], 6.57 µM; in assay [4] it was 3.37 µM; in assay [5] it was 1.89 µM.
As to `Cc1cccc(-c2cn(-c3cccc(C(=O)O)c3C(=O)O)nn2)c1`, the 50% inhibitory concentration (IC50) was 1.83 µM in assay [1]; more than 100 µM in assay [2]; more than 100 µM in assay [3]; 19.8 µM in assay [4]; 28.8 µM in assay [5].
In the case of `O=C(O)c1cccc(-n2cc(-c3cccc(Cl)c3)nn2)c1C(=O)O`, the IC50 in assay [1] is 2.84 µM; in assay [2], more than 100 µM; in assay [3], 15 µM; in assay [4], 20.5 µM; in assay [5], 32.2 µM.
Take `O=P(O)(O)Cc1cccc(-n2cc(-c3ccccc3F)nn2)c1`: the concentration for half-maximal inhibition (IC50) in assay [1] stood at 8.49 µM; in assay [2], 25.9 µM; in assay [3], 9.79 µM; in assay [4], 0.65 µM; in assay [5] it was 0.1 µM.
For `O=P(O)(O)Cc1ccccc1-n1cc(CNc2ccccc2)nn1`, in that order: more than 100 µM, 82.8 µM, 46 µM, 4.16 µM and 14.9 µM.
The matching figures for `O=C(O)c1cn(-c2cccc(C(=O)O)c2C(=O)O)nn1`: 29.2 µM, more than 100 µM, more than 100 µM, 55.3 µM and 93.6 µM.

For the origin of these results see ChEMBL document CHEMBL5620345, “Metal binding pharmacophore click-derived discovery of new broad-spectrum metallo-β-lactamase inhibitors” (Eur J Med Chem, 2023).
